The values below are quoted from earlier work in patent US20200306172A1, “DEPIGMENTING DERMATOLOGICAL AND COSMETIC COMPOSITIONS” (NUNII LABORATOIRE, priority 2017, published 2020).

Read-outs that look alike come from different tables or passages of the source.

The conditions of data set [1]: powder raw material.
For data set [2] the following is noted: pH 4 to pH 6.

With `CCOC1=C(O)C(=O)O[C@@H]1[C@@H](O)CO` [3-O-ethyl-L-ascorbic acid], the solubility entry in data set [1] was “soluble in water and alcohol”. The stability entry in data set [2] is “more stable than ascorbic acid and its other derivatives”.
As for `NC(=O)c1cccnc1` [Niacinamide], the solubility result in data set [1] is recorded as “readily soluble in water, alcohol or glycerol”.
For `Oc1ccc(/C=C/c2cc(O)cc(O)c2)cc1` [Trans-resveratrol], the solubility entry in data set [1] is “soluble in polyethylene glycols and propylene glycols”.
On to `O=c1cc(CO)occ1O` [kojic acid], for which the depigmenting activity result is listed as “no depigmenting activity” (kojic acid at 1%) and “shows a depigmenting effect” (kojic acid at 4% dose).
Take `OCC1O[C@H](Oc2ccc(O)cc2)C(O)C(O)[C@@H]1O` (stereo partly drawn) [α-arbutin]: the solubility entry in data set [1] is on record as “readily soluble in water”.
